Measured values from patent US6723739B1, “Glucopyranoside benzothiophenes” (Eli Lilly and Company, priority 1994, dated 2004).

Columns and labels:
[1] = test system: uterine eosinophil peroxidase; experiment: Uterine eosinophil peroxidase (EPO) assay in ovariectomized rats; format: in vivo, rat; conditions: OVX rats, daily for 4 days
Source text: (§1) Seventy-five day old female Sprague Dawley rats (weight range of 200 to 225 g) were obtained from Charles River Laboratories (Portage, Mich.). The animals were either bilaterally ovariectomized (OVX) or exposed to a sham surgical procedure at Charles River Laboratories, and then shipped after one week. Upon arrival, they were housed in metal hanging cages in groups of 3 or 4 per cage and had ad libitum access to food (calcium content approximately 0.5%) and water for one week. Room temperature was maintained at 22.2°±1.7° C. with a minimum relative humidity of 40%. The photoperiod in the room was 12 hours light and 12 hours dark.
(§2) Dosina Regimen/Tissue Collection. After a one week acclimation period (therefore, two weeks post-OVX) daily dosing with test compound was initiated. All compounds were administered subcutaneously at the dosages listed. Animals were dosed daily for 4 days. Following the dosing regimen animals were weighed and anesthetized with a ketamine: xylazine (2:1, [V:V] mixture and a blood sample was collected by cardiac puncture. The animals were then sacrificed by asphyxiation with CO2 and the uterus was removed through a midline incision and a wet weight was determined.
Uterine Eosinophil Peroxidase (EPO) Assay. The presence of eosinophils in the uterus is an indication of estrogenic activity of a compound. To maintain EPO activity, uteri were kept at 4° C. until time of enzymatic analysis. The uteri were then homogenized in 50 volumes of 50 mM Tris buffer (pH-8.0) containing 0.005% Triton X-100. Upon addition of 0.01% hydrogen peroxide and 10 mM o-phenylenediamine (final concentrations) in Tris buffer, increase in absorbance was monitored for one minute at 450 nm. The maximal velocity of a 15 second interval was determined over the initial linear portion of the reaction curve.

uterus = experiment: Uterine wet weight in ovariectomized rats; format: in vivo, rat; conditions: OVX rats, daily for 4 days, vs control OVX
Procedure: (§3) A post-menopausal model was used in which effects of different treatments upon circulating lipids were determined.
as §1, §2

serum cholesterol = experiment: Serum cholesterol in the ovariectomized rat post-menopausal model; format: in vivo; conditions: OVX rats, daily for 4 days
Procedure: as §3, §1, §2
Cholesterol Analysis. Blood samples were allowed to clot at room temperature for 2 hrs, and serum was obtained following centrifugation for 10 min at 3000 rpm. Serum cholesterol was determined using a Boehringer Mannheim Diagnostics high performance cholesterol assay. Briefly the cholesterol was oxidized to cholest-4-en-3-one and hydrogen peroxide. The hydrogen peroxide was then reacted with phenol and 4-aminophenazone in the presence of peroxidase to produce a p-quinone imine dye, which was read spectrophotometrically at 500 nm. Cholesterol concentration was then calculated against a standard curve. The entire assay was automated using a Biomek Automated workstation.

[2] = Systemic circulation and metabolites after oral raloxifene in humans; format: in vivo, human

| SMILES | EPO Activity (Vmax for eosinophil peroxidase activity) ([1]; 0.013 mg/kg subcutaneously) [n OD/min] | EPO Activity (Vmax for eosinophil peroxidase activity) ([1]; 0.13 mg/kg subcutaneously) [n OD/min] | EPO Activity (Vmax for eosinophil peroxidase activity) ([1]; 1.3 mg/kg subcutaneously) [n OD/min] | % Uterine Wt. gain (uterus; 0.013 mg/kg subcutaneously) [%] | % Uterine Wt. gain (uterus; 0.13 mg/kg subcutaneously) [%] | % Uterine Wt. gain (uterus; 1.3 mg/kg subcutaneously) [%] | % Decrease of Serum Cholesterol (serum cholesterol; 0.013 mg/kg subcutaneously) [%] | % Decrease of Serum Cholesterol (serum cholesterol; 0.13 mg/kg subcutaneously) [%] | % Decrease of Serum Cholesterol (serum cholesterol; 1.3 mg/kg subcutaneously) [%] | Metabolite status ([2]; human metabolite of raloxifene) | Concentrations of raloxifene in systemic circulation ([2]; administered orally to humans) |
| --- | --- | --- | --- | --- | --- | --- | --- | --- | --- | --- | --- |
| O=C(c1ccc(OCCN2CCCCC2)cc1)c1c(-c2ccc(O)cc2)sc2cc(O[C@@H]3OC(C(=O)O)[C@@H](O)[C@H](O)[C@H]3O)ccc12 (some centres unmarked) [Ia] | 2.0 | 2.3 | 3.5 | −21.3 | 14.2 | 24.1 | 21.7 | 43.8 | 44.5 | – | – |
| O=C(c1ccc(OCCN2CCCCC2)cc1)c1c(-c2ccc(O[C@@H]3O[C@H](C(=O)O)[C@@H](O)[C@H](O)[C@H]3O)cc2)sc2cc(O)ccc12 [Ib] | 3.2 | 3.1 | 4.4 | −7.7 | 14.5 | 36.1 | 13.6 | 21.9 | 56.8 | predominant human metabolite | – |
| Cl.O=C(c1ccc(OCCN2CCCCC2)cc1)c1c(-c2ccc(O)cc2)sc2cc(O)ccc12 [raloxifene, 6-Hydroxy-2-(4-hydroxyphenyl)-3-[4-(2-piperidinoethoxy)benzoyl]benzo[b]thiophene, reference compound] | – | – | – | – | – | – | – | – | – | – | absence of detectable concentrations |
